# Laboratory results published in patent publication US20040022842A1, “Liposome preparations containing oxaliplatin” (Mebiopharm Co., Ltd., priority 2002, published 2004).
# Test system: Colon 26 cells
# Test: Cytotoxicity of oxaliplatin (L-OHP) liposomes against tumor cells, WST-1 assay (Example 7), Colon 26
# Format: cell-based
# Settings: Colon 26 and AsPC-1 cells; comparison of L-OHP solution and liposome preparations
# Experimental: Colon 26 cells and AsPC-1 cells were inoculated on a 96-well plate at 5×10^3 cells per well and pre-incubated with 5% CO2 overnight.
# The cells were incubated at 37° C. under 5% CO2 for 4 hours. The test solutions were removed, and the incubation was continued for an additional 2 days, at which time the number of living cells was counted. Cell viability was determined according to the WST-1 assay.
# According to the WST-1 assay, the assay solution contained 5 mmol/L WST-1 reagent (10 μL); 20 mmol/L HEPES; 1-methoxy-PMS at 0.2 mmol/L, at pH 7.4. This solution was added to each well, mixed thoroughly, and incubated in a CO2 incubator for 2 hours to allow for color development. The absorbance was then measured on a plate reader at 400-450 nm, with a reference wavelength of >600 nm.
structure (smiles),measurement,value
"O=C1[O][Pt]2([NH]C3CCCCC3[NH]2)[O]C1=O [L-OHP solution, Oxaliplatin]",relative cytotoxicity in words,showed the highest toxicity
